{"source": "paper PMC10641813", "about": "(Journal of Medicinal Chemistry, 2023)", "key": {"HT29/DX cells [1]": {"tested_on": "HT29/DX cells", "assay": "Intracellular accumulation of DOX in HT29/DX cells", "format": "cell-based, human", "details": "5 μM DOX 3 h, 15 at 1, 10, 100 nM", "method": "(§1) In this model, also at the highest concentration (100 nM), the compound was not able to fully restore the accumulation of the drug to the intracellular level of MDCK cells, which were devoid of P-gp.\n(§2) Figure S5. Dose-dependent viability of HT29 and HT29/DX (A), MDCK and MDCK/P-gp (B) cells, incubated with increasing concentrations (0-10 µM) of 15 for 72 h, measured with a spectrophotometric assay. Data are means ± SD (n = 3). **p<0.01, ***p<0.001: versus untreated cells (“0”). […]\n(§3) drug retention was measured spectrofluorimetrically. Data are means ± SD (n=3)., ***p<0.001: versus HT29 or […]"}, "BT-549 cells": {"tested_on": "BT-549 cells", "assay": "Inhibition of BT-549 TNBC cell growth (hypoxia, cell counting)", "details": "72 h, 1% O2", "description": "(§7) Cells were grown in Dulbecco’s modified Eagle’s medium (D-MEM) supplemented with 10% fetal bovine serum (FBS) at 37 °C with 5% CO2. In all experiments, 300,000 cells were plated in 9 cm^2 dishes and exposed to test compound dissolved in DMSO (0.1% final concentration) at the indicated concentrations. […] Cells were kept at low passage, returning to the original frozen stocks every 3–4 months. Hypoxic culture conditions were realized in the presence of 1% O2 and 5% CO2. […] After 72 h of incubation at 37 °C with 1% O2 and 5% CO2, cells were trypsinized, and cell counting was performed with the MACSQuant analyzer (Miltenyi Biotec).[76]"}, "SW620 cells": {"tested_on": "SW620 cells", "assay": "Inhibition of growth of SW620 cells (XTT)", "details": "read-out: IC50 SW620; human colorectal carcinoma cells; combinations: each compound at its IC50 concentration", "description": "(§8) In drug combination studies, each compound was used at the corresponding IC50 concentration.\n(§9) Cells were grown in Dulbecco’s modified Eagle’s medium (D-MEM) supplemented with 10% fetal bovine serum (FBS) at 37 °C with 5% CO2. In all experiments, 300,000 cells were plated in 9 cm^2 dishes and exposed to test compound dissolved in DMSO (0.1% final concentration) at the indicated concentrations. […] Cells were kept at low passage, returning to the original frozen stocks every 3–4 months."}, "HT29 cells": {"tested_on": "HT29 cells", "assay": "Viability of HT29 cells with DOX alone or coincubated with 15 (WST-1)", "format": "cell-based, human", "details": "15 at 1, 10, 100 nM coincubated with 5 μM DOX, 72 h", "method": "(§4) Cells were seeded in 96-well plates."}, "[2]": {"tested_on": "human primary T lymphocytes", "assay": "Toxicity on human primary T lymphocytes (annexin V/propidium iodide flow cytometry)", "details": "30 μM, 72 h, healthy/normal T cells", "description": "After 72 h, the frequency of late apoptotic cells was assayed by staining with annexin V and propidium iodide.\nPotential toxicity on healthy cells was evaluated by treating human primary T lymphocytes from two healthy donors with 30 μM 15 or with a control vehicle (DMSO). Healthy donors’ peripheral blood mononuclear cells (PBMCs) were isolated by Lymphoprep (Nycomed) gradient centrifugation. T lymphocytes were negatively selected from PBMCs using magnetic Dynabeads Untouched Human T Cells Kit (Thermo Fisher Scientific) following the manufacturer’s instructions. Apoptotic cell death was evaluated using APC Annexin-V Apoptosis Detection Kit with PI (Thermo Fisher Scientific). […] Cells were then stained using annexin-V/APC and propidium iodide according to the manufacturer’s instruction. Cell populations were acquired using a FACS Canto II flow cytometer (BD Biosciences). Flow cytometric analysis was performed using Flow Jo Flow Cytometric Analysis Software."}, "HCT116 cells": {"tested_on": "HCT116 cells", "assay": "Inhibition of growth of HCT116 cells (MTT)", "details": "read-out: IC50 HCT116; human colorectal carcinoma cells; combinations: each compound at its IC50 concentration", "description": "as §8, §9"}, "NCI/ADR-RES cells": {"tested_on": "NCI/ADR-RES cells", "assay": "Inhibition of growth of NCI/ADR-RES DOX-resistant cells", "format": "cell-based, human", "details": "DOX-resistant cell line derived from OVCAR-8, 96 h", "method": "(§5) ; 11 and 15, NCI/ADR-RES and OVCAR-8 cells) to 4.8 (19, OVCAR-8 cells). […] . […] Cells were seeded in 96-well plates."}, "MDA-MB 231 cells": {"tested_on": "MDA-MB 231 cells", "assay": "Inhibition of MDA-MB 231 TNBC cell growth (hypoxia, cell counting)", "details": "72 h, 1% O2", "description": "as §7"}, "OVCAR-8 cells": {"tested_on": "OVCAR-8 cells", "assay": "Inhibition of growth of OVCAR-8 cells", "format": "cell-based, human", "details": "ovarian tumor cell line 8, 96 h", "method": "as §5"}, "[3]": {"tested_on": "cleaved PARP and cleaved caspase-3 in HCT116 cells", "assay": "Markers of apoptosis in HCT116 cells (Western blot)", "format": "cell-based, human", "details": "increasing concentrations, 72 h", "from_the_text": "Detection of cleaved poly(ADPribose) polymerase (PARP) by antibodies is considered a prominent marker of apoptosis. […] Overexpression of the 24 kDa N-terminal fragment inhibits DNA repair and ADPribose formation and stimulates apoptosis,[45] with consequent increase of PARP full-length/cleaved ratio and a darker cleaved band. During apoptosis, caspase-3 is a major cause of proteolysis. Detection of cleaved caspase-3 is also a reliable marker of apoptosis since it allows the quantification of cells that are dying or have died by apoptosis.[46]\n(§6) Western blot was performed as previously described.[79] […] Cell lysates were subjected to SDS-polyacrylamide gel electrophoresis and transferred to a nitrocellulose membrane. The membrane was blocked, washed, and incubated with primary antibodies at 37 °C overnight [anti-β-catenin (D10A8) XP mAb #8480 (Cell Signaling), anti-cMyc #9402S (Cell Signaling), anticleaved caspase 3 (Asp175) #9661 (Cell Signaling), and anti-PARP #9542S (Cell Signaling)]. After the membrane was washed, it was incubated with secondary antibodies at 37 °C for 30 min. The membrane was washed again with Tris-buffered saline/Tween-20, and the samples were exposed and imaged using the WesternBright ECL solution (#K-12045-D50 Advansta)."}, "hCA IX": {"biological_target": "T1, hCA IX (Homo sapiens, UniProt Q16790)", "T1 construct": "made in house", "assay": "Stopped flow CO2 hydrase assay, hCA IX", "format": "biochemical", "details": "stopped flow technique, mean from three assays"}, "MDCK/P-gp cells [4]": {"tested_on": "MDCK/P-gp cells", "assay": "Intracellular accumulation of DOX in MDCK/P-gp cells", "format": "cell-based, canine", "details": "5 μM DOX 3 h, 15 at 1, 10, 100 nM", "method": "as §1, §2, §3"}, "MDCK cells": {"tested_on": "MDCK cells", "assay": "Viability of MDCK cells with DOX alone or coincubated with 15 (WST-1)", "format": "cell-based, canine", "details": "MDCK cells, 15 at 1, 10, 100 nM coincubated with 5 μM DOX, 72 h", "method": "as §4"}, "HT29/DX cells [5]": {"tested_on": "HT29/DX cells", "assay": "Viability of HT29/DX cells with DOX alone or coincubated with 15 (WST-1)", "format": "cell-based, human", "details": "15 at 1, 10, 100 nM coincubated with 5 μM DOX, 72 h", "method": "as §4"}, "[6]": {"tested_on": "HT29, HT29/DX, MDCK and MDCK/P-gp cells", "assay": "Cytotoxicity of 15 alone (WST-1 viability)", "details": "1–100 nM 15 alone, 72 h, four cell lines", "description": "Cell lines were obtained from the American Tissue Culture Collection (ATCC), unless specified otherwise. Cells were grown in Dulbecco’s modified Eagle’s medium (D-MEM) supplemented with 10% fetal bovine serum (FBS) at 37 °C with 5% CO2. In all experiments, 300,000 cells were plated in 9 cm^2 dishes and exposed to test compound dissolved in DMSO (0.1% final concentration) at the indicated concentrations. […] Cells were kept at low passage, returning to the original frozen stocks every 3–4 months. […] Human chemosensitive HT29 colon cancer cells were purchased from ATCC (Manassas, VA). […] MDCK and MDCK/P-gp (a gift of Prof. P. Borst, NKI-AVL Institute, Amsterdam, The Netherlands) were grown in DMEM high glucose supplemented with 10% FBS, 1% penicillin, 1% v/v penicillin–streptomycin, and 1% v/v glutamine. […] Cells were seeded in 96-well plates. […] Cell viability was evaluated using the WST-1 assay (Sigma-Merck), as per the manufacturer’s instructions, using a Packard EL340 microplate reader (Bio-Tek Instruments, Winooski, VT). The absorbance units of the untreated cells were considered 100%; the absorbance units of the other experimental conditions were expressed as a percentage versus the absorbance units of the untreated cells."}, "MDCK/P-gp cells [7]": {"tested_on": "MDCK/P-gp cells", "assay": "Viability of MDCK/P-gp cells with DOX alone or coincubated with 15 (WST-1)", "format": "cell-based, canine", "details": "15 at 1, 10, 100 nM coincubated with 5 μM DOX, 72 h", "method": "as §4"}, "MCF-7 cells": {"tested_on": "MCF-7 cells", "assay": "Inhibition of growth of MCF-7 cells", "format": "cell-based, human", "details": "human nonmetastatic breast cancer epithelial cells", "method": "as §5"}, "[8]": {"tested_on": "Wnt/β-catenin signaling pathway", "assay": "Wnt reporter assay (TOPFlash/FOPFlash luciferase) in HEK293T cells", "details": "HEK 293T cells, LiCl 50 mM", "description": "HEK293T cells were seeded at 2 × 10^4 cells/cm^2 in triplicate in a 24-well plate."}, "SW480 cells": {"tested_on": "SW480 cells", "assay": "Inhibition of growth of SW480 cells (XTT)", "details": "read-out: IC50 SW480; human colorectal carcinoma cells; combinations: each compound at its IC50 concentration", "description": "as §8, §9"}, "[9]": {"tested_on": "β-catenin and MYC in HCT116 cells", "assay": "β-Catenin and c-Myc levels in HCT116 cells (Western blot)", "format": "cell-based, human", "details": "LiCl 50 mM, 24 h", "method": "as §6"}, "[10]": {"tested_on": "Wnt target genes Fgf20 and Sall4", "assay": "Fgf20 and Sall4 mRNA levels in HCT116 cells (qPCR)", "format": "cell-based, human", "method": "Total mRNA was isolated from cells with TriReagent (#R2050–1–200 Zymo Research), and complementary DNA (cDNA) was synthesized by the Sensifast cDNA synthesis kit (#BIO-65054 Bioline). Quantitative PCR was performed with SensiFast Sybr Lo-Rox Mix (#BIO-94020 Bioline), using an Applied Biosystems ViiA 7 Real-Time PCR System instrument (doi: 10.1038/s41389-019-0175-6) and the following amplification primers: • β-actin forward: […]; • β-actin reverse: […]; • Fgf20 forward: […]; • Fgf20 reverse: […]; • Sall4 forward: […]; • Sall4 reverse: […]."}, "tubulin": {"tested_on": "tubulin", "assay": "Tubulin assembly (polymerization) assay", "format": "biochemical", "details": "at 20 μM", "description": "The reaction mixtures contained 0.8 M monosodium glutamate (pH 6.6 with HCl in a 2 M stock solution), 10 μM tubulin, 4% (v/v) DMSO, and varying concentrations of compound. […] The extent of the reaction was measured."}, "P-gp [11]": {"biological_target": "T2, P-gp (Homo sapiens, UniProt P08183)", "T2 sequence (P08183 whole entry)": "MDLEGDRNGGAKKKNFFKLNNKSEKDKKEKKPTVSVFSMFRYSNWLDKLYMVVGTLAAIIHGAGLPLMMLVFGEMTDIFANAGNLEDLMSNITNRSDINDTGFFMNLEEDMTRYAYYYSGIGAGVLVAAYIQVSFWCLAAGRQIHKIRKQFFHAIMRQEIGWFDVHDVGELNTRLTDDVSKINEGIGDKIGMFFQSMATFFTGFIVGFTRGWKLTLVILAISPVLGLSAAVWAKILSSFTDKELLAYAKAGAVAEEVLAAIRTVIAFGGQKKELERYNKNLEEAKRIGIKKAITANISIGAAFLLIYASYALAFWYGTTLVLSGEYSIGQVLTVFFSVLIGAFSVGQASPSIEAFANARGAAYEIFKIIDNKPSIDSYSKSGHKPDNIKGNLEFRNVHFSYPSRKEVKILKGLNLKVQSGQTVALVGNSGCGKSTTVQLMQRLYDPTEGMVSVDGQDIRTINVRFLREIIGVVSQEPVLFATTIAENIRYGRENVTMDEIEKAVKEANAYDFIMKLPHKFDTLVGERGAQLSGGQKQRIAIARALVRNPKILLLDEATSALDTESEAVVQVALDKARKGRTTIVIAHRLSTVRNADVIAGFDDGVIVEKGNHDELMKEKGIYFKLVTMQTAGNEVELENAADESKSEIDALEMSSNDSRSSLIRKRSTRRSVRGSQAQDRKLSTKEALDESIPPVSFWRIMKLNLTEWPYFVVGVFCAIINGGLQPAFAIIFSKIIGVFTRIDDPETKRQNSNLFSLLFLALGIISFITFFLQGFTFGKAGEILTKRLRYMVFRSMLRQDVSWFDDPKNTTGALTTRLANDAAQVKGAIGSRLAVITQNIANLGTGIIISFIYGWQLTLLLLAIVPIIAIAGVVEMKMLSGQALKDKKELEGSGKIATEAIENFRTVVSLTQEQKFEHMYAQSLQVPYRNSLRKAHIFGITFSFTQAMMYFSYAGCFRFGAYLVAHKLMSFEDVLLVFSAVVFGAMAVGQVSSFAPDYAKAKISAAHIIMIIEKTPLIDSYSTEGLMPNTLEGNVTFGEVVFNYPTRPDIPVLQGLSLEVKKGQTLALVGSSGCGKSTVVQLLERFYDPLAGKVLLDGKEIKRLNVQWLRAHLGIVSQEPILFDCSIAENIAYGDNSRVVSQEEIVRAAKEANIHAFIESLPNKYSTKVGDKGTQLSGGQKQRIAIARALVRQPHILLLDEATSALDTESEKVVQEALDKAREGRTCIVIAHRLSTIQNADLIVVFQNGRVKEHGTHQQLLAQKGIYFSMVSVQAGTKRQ", "assay": "P-gp ATPase activity, protein immunopurified from HT29/DX cells", "details": "for Pgp activity (rate of ATP hydrolysis) HT29/DX: 3 h, single replicates of I-III exp", "description": "(§10) 100 μg of each immunopurified protein was incubated for 30 min at 37 °C with 50 μL of the reaction mixture (25 mM Tris/HCl, 3 mM ATP, 50 mM KCl, 2.5 mM MgSO4, 3 mM dithiothreitol, 0.5 mM EGTA, 2 mM ouabain, 3 mM NaN3; pH 7.0). […] After 30 min incubation at room temperature, the absorbance of the phosphate hydrolyzed from ATP was measured at 620 nm, using a Packard EL340 microplate reader. The absorbance was converted into nmoles hydrolyzed phosphate (Pi)/min/mg protein, according to the titration curve previously prepared."}, "P-gp [12]": {"biological_target": "T2, P-gp", "assay": "P-gp ATPase activity, protein immunopurified from MDCK/P-gp cells", "details": "for Pgp activity (rate of ATP hydrolysis) MDCK-Pgp: 3 h, single replicates of I-III exp", "description": "as §10"}}, "note": "Where “and” joins values, the source holds several entries; their conditions need not be identical. Equal entries are not always repeated.", "data": [{"substance": "4-(3-Phenyl-4-(3,4,5-trimethoxybenzoyl)-1H-pyrrol-1-yl)benzenesulfonamide [Compound 15]", "values": [{"measurement": "intracellular accumulation of DOX", "setting": "HT29/DX cells [1]", "result": "strong dose-dependent increase"}, {"measurement": "Inhibition of BT-549 TNBC cell growth", "setting": "BT-549 cells", "result": "significantly impaired cell growth"}, {"measurement": "IC50", "setting": "SW620 cells", "result": "23800 ± 1400", "unit": "nM"}, {"measurement": "cell viability compared with DOX alone", "setting": "HT29 cells", "result": "did not further reduce cell viability"}, {"measurement": "increase in cell death compared to the control vehicle", "setting": "[2]", "result": "6–8%"}, {"measurement": "IC50", "setting": "HCT116 cells", "result": "8700 ± 1400", "unit": "nM"}, {"measurement": "IC50", "setting": "NCI/ADR-RES cells", "result": "1900 nM and 1900 to 2100 nM and 2100 nM"}, {"measurement": "Inhibition of MDA-MB 231 TNBC cell growth", "setting": "MDA-MB 231 cells", "result": "potent antiproliferative effect"}, {"measurement": "IC50", "setting": "OVCAR-8 cells", "result": "1900 to 2100 nM and 1900 nM"}, {"measurement": "cleaved PARP and cleaved caspase-3 levels", "setting": "[3]", "result": "increments of cleaved PARP and cleaved caspase-3"}, {"measurement": "Ki", "setting": "hCA IX", "result": 24.1, "unit": "nM"}, {"measurement": "intracellular accumulation of DOX", "setting": "MDCK/P-gp cells [4]", "result": "increasing DOX accumulation"}, {"measurement": "cell viability compared with DOX alone", "setting": "MDCK cells", "result": "did not further reduce cell viability"}, {"measurement": "cell viability compared with DOX alone", "setting": "HT29/DX cells [5]", "result": "decreased cell viability in a dose-dependent manner"}, {"measurement": "cell viability", "setting": "[6]", "result": "> 75", "unit": "%"}, {"measurement": "cell viability compared with DOX alone", "setting": "MDCK/P-gp cells [7]", "result": "decreased cell viability in a dose-dependent manner"}, {"measurement": "IC50", "setting": "MCF-7 cells", "result": "1900 to 2100 nM and 1900 nM"}, {"measurement": "TOP reporter activity", "setting": "[8]; increasing concentrations, 24 h", "result": "significant and dose-dependent inhibition"}, {"measurement": "FOP reporter activity", "setting": "[8]; negative control reporter", "result": "did not significantly prevent the activity"}, {"measurement": "IC50", "setting": "SW480 cells", "result": "17700 ± 1300", "unit": "nM"}, {"measurement": "β-catenin and MYC levels", "setting": "[9]", "result": "marked reduction"}, {"measurement": "expression of Wnt target genes Fgf20 and Sall4", "setting": "[10]", "result": "significantly reduced the expression"}, {"measurement": "inhibition of tubulin assembly", "setting": "tubulin", "result": "partial inhibition"}, {"measurement": "Pgp activity (rate of ATP hydrolysis) HT29/DX", "setting": "P-gp [11]; 15 at 1 nM", "result": "0.7 nmol Pi × min-1 × mg protein-1 (2×) and 0.8 nmol Pi × min-1 × mg protein-1 (3×) and 0.9 nmol Pi × min-1 × mg protein-1 and 0.6 nmol Pi × min-1 × mg protein-1 (2×) and 1.0 nmol Pi × min-1 × mg protein-1"}, {"measurement": "Pgp activity (rate of ATP hydrolysis) HT29/DX", "setting": "P-gp [11]; 15 at 10 nM", "result": "0.4 nmol Pi × min-1 × mg protein-1 (3×) and 0.6 nmol Pi × min-1 × mg protein-1 (3×) and 0.5 nmol Pi × min-1 × mg protein-1 (2×) and 0.7 nmol Pi × min-1 × mg protein-1"}, {"measurement": "Pgp activity (rate of ATP hydrolysis) HT29/DX", "setting": "P-gp [11]; 15 at 100 nM", "result": "0.1 nmol Pi × min-1 × mg protein-1 and 0.2 nmol Pi × min-1 × mg protein-1 (3×) and 0.3 nmol Pi × min-1 × mg protein-1 (5×)"}, {"measurement": "effect on P-gp activity", "setting": "P-gp [11]; HT29/DX, starting at 10 nM", "result": "reduced P-gp activity"}, {"measurement": "Pgp activity (rate of ATP hydrolysis) MDCK-Pgp", "setting": "P-gp [12]; 15 at 1 nM", "result": "5.2 nmol Pi × min-1 × mg protein-1 and 5.6 nmol Pi × min-1 × mg protein-1 (2×) and 5.4 nmol Pi × min-1 × mg protein-1 (2×) and 5.5 nmol Pi × min-1 × mg protein-1 and 5.9 nmol Pi × min-1 × mg protein-1 and 5.1 nmol Pi × min-1 × mg protein-1 and 5.3 nmol Pi × min-1 × mg protein-1"}, {"measurement": "Pgp activity (rate of ATP hydrolysis) MDCK-Pgp", "setting": "P-gp [12]; 15 at 10 nM", "result": "3.4 nmol Pi × min-1 × mg protein-1 (3×) and 3.2 nmol Pi × min-1 × mg protein-1 (3×) and 3.0 nmol Pi × min-1 × mg protein-1 and 3.9 nmol Pi × min-1 × mg protein-1 and 3.8 nmol Pi × min-1 × mg protein-1"}, {"measurement": "Pgp activity (rate of ATP hydrolysis) MDCK-Pgp", "setting": "P-gp [12]; 15 at 100 nM", "result": "2.1 nmol Pi × min-1 × mg protein-1 and 2.4 nmol Pi × min-1 × mg protein-1 (2×) and 2.3 nmol Pi × min-1 × mg protein-1 and 1.6 nmol Pi × min-1 × mg protein-1 and 1.8 nmol Pi × min-1 × mg protein-1 (2×) and 1.7 nmol Pi × min-1 × mg protein-1 and 1.5 nmol Pi × min-1 × mg protein-1"}, {"measurement": "effect on P-gp activity", "setting": "P-gp [12]; MDCK/P-gp, starting at 10 nM", "result": "reduced P-gp activity"}]}]}
